PMC5650142, “GPR40 partial agonists and AgoPAMs: Differentiating effects on glucose and hormonal secretions in the rodent” (PLoS ONE, 2017)
“And” between values parts separate entries of the source, which are not always exact repeats. Equal entries are not always repeated. Where two headings read alike, the source gives them in different places.

Legend:
[1] = tested on: pancreatic islets from wild type and GPR40−/− mice; assay: Isolated pancreatic islets static GDIS assay (insulin, glucagon secretion); assay type: cell-based, mouse; design: Islet insulin / Islet insulin, mean: unit not given here; settings: for glucagon secretion from islets: ex vivo; for Islet Glucagon / Islet insulin: individual replicates; for Islet Glucagon, mean / Islet insulin, mean: mean of replicates
Protocol: Pancreatic islets of Langerhans were isolated from wild type and GPR40^−/− mice (littermates) by collagenase digestion and discontinuous Ficoll gradient separation. […] Insulin secretion was determined by a 1-h static incubation in Krebs-Ringer bicarbonate (KRB) buffer in a 96-well format as previously described. […] The buffer was removed from the wells at the end of the incubation and assayed for insulin levels using the Insulin ELISA kit (ALPCO, Salem, NH) and glucagon level using glucagon ELISA kit (ALPCO, Salem, NH).

[2] = tested on: GK rats; assay: GK rat acute efficacy (glucose, insulin, glucagon after single dose); assay type: in vivo; settings: 30 mpk
Protocol: Ambient blood glucose was measured via tail snip with a glucometer (OneTouch Ultra, Lifescan Inc., Milpitas, CA). Body weights were then measured, and food was removed approximately 1 hr post lights on. Animals were sorted into treatment groups based on ambient glucose. At approximately 10 AM, glucose was measured and blood for insulin, glucagon, and drug exposure was collected. […] Each compound tested was dosed at its maximal effective dose determined through a series of dose titrations using this experimental paradigm (data not shown). Effects of treatment on glucose, insulin, and glucagon were measured at 1, 2, 4, and 24 hrs post dose. After the 4 hr blood collection, food was returned overnight and removed the next day at 1 hr post lights on.
Blood for insulin, glucagon, GLP-1, GIP, and PYY measurements was collected into K2EDTA Microtainer tubes (BD, Franklin Lakes, NJ) pre-treated with DPP4 inhibitor (Millipore, Billerica, MA) and cOmplete™ Protease Inhibitor Cocktail Tablets (Roche Diagnostics, Indianapolis, IN). Tubes were centrifuged for 10 minutes at 5000 RPM, and plasma was aliquotted for analysis. Plasma insulin levels were measured via EIA (Mesoscale Discovery ELISA Kit, Gaithersburg MD). Rat plasma total GLP-1 was measured using Total GLP-1 (ver.2) Assay Kit (Cat#: K150JVC). The measurement of active GLP-1 was carried out in a similar manner as that described for total GLP-1 assay with the exception that MSD Active GLP-1 (ver. 2) assay kit (Cat# K150JWC) was used. Rat plasma glucagon was measured using an in-house glucagon assay developed as a MSD format sandwich immunoassay (Merck & Co., Inc., MRL, Kenilworth, NJ USA). The antibody specificity was cross validated via mass- spec using procedures described in Lee et al. Briefly, MSD Streptavidin Gold plates were coated with 2 μg/ml biotin mouse monoclonal antibody generated to glucagon. Test samples were added to the plates and a separate Sulfo- tagged monoclonal antibody was used to detect the captured glucagon protein (2 μg/ml). The ELISA was carried out in the standard reagents in the MSD format. The plate was read on the SECTOR Imager 6000 Reader. Metabolic hormones GIP (Gastric Inhibitory Polypeptide) and PYY (Peptide YY) were measured in rat plasma using the Rat Metabolic Magnetic Bead Panel (EMD Millipore, Billerica, MA). The assay was performed according to manufacturer protocol.

[3] = target: human GPR40 (Homo sapiens, UniProt O14842); assay: GPR40 binding assay, AgoPAM tracer [3H]25 ([3H]AP9); design: expressed in transfected cells; host or cells: CHO / CHO-K1 cells, membrane preparation;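 on % Bound Normalized to 100: 100% bound is tracer binding in DMSO-only wells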;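 on %Bound: 100% bound is tracer binding in DMSO-only wells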
Protocol: Two small molecule tracers, the partial agonist [3H][…] and the AgoPAM [3H]25, are used to measure compound affinity at each site as described previously. Because of the allosteric coupling of the two sites and the nature of the assay, addition of a compound will either displace (binds to same site) or augment (binds to allosterically coupled site) radiotracer. Membranes expressing GPR40 were prepared from CHO cells stably expressing human GPR40. […] Sigma P8830) and were homogenized in 50 ml aliquots with a motor-driven glass Dounce homogenizer, 15 strokes at 1900 rpm on wet ice, repeating once. Homogenates were centrifuged at 2200 rpm for 10 min at 4°C. Supernatants were carefully removed and pooled. Homogenization and centrifugation were repeated until the debris pellet was translucent to maximize membrane recovery. Supernatants were then centrifuged at […] rpm for 20 min. at 4°C. […] Protein concentration was determined by Pierce BCA kit. […] The beads and membrane mixture is then vigorously mixed for 30 minutes at room temperature prior to addition to the assay. […] Next, 15 μl of the radioligand and 35 μl of the beads/membranes solution is added to each well. The assay plates are then sealed and incubated for 30 minutes at room temperature on an orbital shaker. The plates are allowed to settle for 16 hours and then counted on a TopCount scintillation counter (PE). […] Maximal % bound and IC50 are then determined for each test compound. 5 μg/well membrane together with 200 μg/well of PVT WGA SPA beads (GE #RPNG-0001) were suspended in a white 96 well plate with a final concentration of 50 μl/well in assay buffer (50 mM Tris, 10 mM MgCl2, and 2 mM EDTA). […] The plate is briefly mixed and incubated for 3-18 h at room temperature, before it is read on a MicroBeta plate counter (Perkin Elmer, MS, USA).

[4] = radioligand L-005306257, dose 0.318285 nM
[5] = radioligand L-005306257, dose 1.00578 nM
[6] = radioligand L-005306257, dose 3.17827 nM
[7] = radioligand L-005306257, dose 10.0433 nM
[8] = radioligand L-005306257, dose 31.7369 nM
[9] = radioligand L-005306257, dose 100.289 nM
[10] = radioligand L-005306257, dose 316.912 nM
[11] = radioligand L-005306257, dose 1001.44 nM
[12] = radioligand L-005306257, dose 3164.56 nM
[13] = radioligand L-005306257, dose 10000 nM

Sequence of human GPR40 (O14842 whole entry): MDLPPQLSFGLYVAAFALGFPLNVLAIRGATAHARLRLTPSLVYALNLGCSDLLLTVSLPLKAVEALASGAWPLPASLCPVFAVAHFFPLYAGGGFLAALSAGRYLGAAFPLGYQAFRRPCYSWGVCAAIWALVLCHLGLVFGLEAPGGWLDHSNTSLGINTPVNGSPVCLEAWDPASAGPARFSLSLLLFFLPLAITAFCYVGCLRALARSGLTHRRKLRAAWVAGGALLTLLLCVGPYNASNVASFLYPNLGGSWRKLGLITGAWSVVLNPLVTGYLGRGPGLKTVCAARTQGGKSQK

Binding Results, % in parentheses, [^3H]AP9 ([3]; WT human GPR40, maximal % (not defined)): (101%) | IC50 ([3]; WT human GPR40, n = 2–13, read-out: Binding Results [IC50, nM], [^3H]AP9): 2.7 ± 0.7 nM | binding of [^3H]25 ([3]; human GPR40 membranes, competition binding): displace | %Act, HUMAN GPR40, Binding Data ([3]; individual determinations, AgoPAM tracer (per Table 2)): 99% and 102% | IC50 ([3]; individual determinations, AgoPAM tracer (per Table 2), read-out: IC50 (nM), HUMAN GPR40, Binding Data): 2.2 nM and 3.2 nM | % Bound Normalized to 100 [3, 4]: 100.21% | %Bound [3, 4]: 94.32% | inhibition at 0.000318285 µM [3, 4]: 5.68% | % Bound Normalized to 100 [3, 5]: 76.16% | %Bound [3, 5]: 70.27% | inhibition at 0.00100578 µM [3, 5]: 29.7% | % Bound Normalized to 100 [3, 6]: 60.56% | %Bound [3, 6]: 54.67% | inhibition at 0.00317827 µM [3, 6]: 45.3% | % Bound Normalized to 100 [3, 7]: 29.85% | %Bound [3, 7]: 23.96% | inhibition at 0.0100433 µM [3, 7]: 76% | % Bound Normalized to 100 [3, 8]: 20.26% | %Bound [3, 8]: 14.37% | inhibition at 0.0317369 µM [3, 8]: 85.6% | % Bound Normalized to 100 [3, 9]: 11.49% | %Bound [3, 9]: 5.60% | inhibition at 0.100289 µM [3, 9]: 94.4% | % Bound Normalized to 100 [3, 10]: 7.10% | %Bound [3, 10]: 1.21% | inhibition at 0.316912 µM [3, 10]: 98.8% | % Bound Normalized to 100 [3, 11]: 8.08% | %Bound [3, 11]: 2.18% | inhibition at 1.00144 µM [3, 11]: 97.8% | % Bound Normalized to 100 [3, 12]: 6.45% | %Bound [3, 12]: 0.56% | inhibition at 3.16456 µM [3, 12]: 99.4% | % Bound Normalized to 100 [3, 13]: 7.75% | %Bound [3, 13]: 1.86% | inhibition at 10 µM [3, 13]: 98.1%
SMILES: COc1ccc(F)c(-c2ccc([C@@H]3CCc4ccc([C@H](C5CC5)[C@H](C)C(=O)O)cc4O3)cc2)c1 [AP1]
glucagon secretion from islets ([1]; GPR40-/- mouse islets): abolished | Islet Glucagon ([1]; KO mouse islets, G2, 1uM): 8.295 pg/ml/ islet and 16.584 pg/ml/ islet and 5.331 pg/ml/ islet and 9.664 pg/ml/ islet and 1.86 pg/ml/ islet and 24.388 pg/ml/ islet and 22.826 pg/ml/ islet and 23.18 pg/ml/ islet and 16.858 pg/ml/ islet and 27.237 pg/ml/ islet | Islet insulin ([1]; KO mouse islets, G2, 1uM): 0.224 and 0.186 and 0.933 and 0.721 and 1.124 and 0.514 and 0.261 and 0.152 and 0.181 and 0.215 | Islet Glucagon, mean ([1]; KO mouse islets, G2, 1uM): 15.6223 pg/ml/ islet | Islet insulin, mean ([1]; KO mouse islets, G2, 1uM): 0.4511 | Islet Glucagon ([1]; KO mouse islets, G16, 1uM): 5.183 pg/ml/ islet and 12.803 pg/ml/ islet and 9.635 pg/ml/ islet and 3.883 pg/ml/ islet and 11.858 pg/ml/ islet and 6.688 pg/ml/ islet and 0.121 pg/ml/ islet and 5.519 pg/ml/ islet and 6.26 pg/ml/ islet and 3.878 pg/ml/ islet | Islet insulin ([1]; KO mouse islets, G16, 1uM): 2.959 and 3.403 and 3.966 and 2.272 and 3.839 and 3.783 and 2.961 and 3.664 and 2.593 and 1.94 | Islet Glucagon, mean ([1]; KO mouse islets, G16, 1uM): 6.5828 pg/ml/ islet | Islet insulin, mean ([1]; KO mouse islets, G16, 1uM): 3.138 | Islet Glucagon ([1]; WT mouse islets, G2, 1uM): 55.828 pg/ml/ islet and 87.628 pg/ml/ islet and 54.498 pg/ml/ islet and 21.019 pg/ml/ islet and 35.248 pg/ml/ islet and 60.615 pg/ml/ islet and 73.937 pg/ml/ islet and 63.3 pg/ml/ islet and 50.656 pg/ml/ islet and 33.503 pg/ml/ islet | Islet insulin ([1]; WT mouse islets, G2, 1uM, listed as L-005306254): 0.53 and 1.151 and 0.66 and 1.39 and 2.61 and 1.55 and 1.058 and 0.71 and 0.4565 and 0.7725 | Islet Glucagon, mean ([1]; WT mouse islets, G2, 1uM): 53.6232 pg/ml/ islet | Islet insulin, mean ([1]; WT mouse islets, G2, 1uM): 1.0888 | Islet Glucagon ([1]; WT mouse islets, G16, 1uM): 29.473 pg/ml/ islet and 34.729 pg/ml/ islet and 57.354 pg/ml/ islet and 33.737 pg/ml/ islet and 7.252 pg/ml/ islet and 14.915 pg/ml/ islet and 23.157 pg/ml/ islet and 23.385 pg/ml/ islet and 38.776 pg/ml/ islet | Islet insulin ([1]; WT mouse islets, G16, 1uM, listed as L-005306254): 12.607 and 12.478 and 13.17 and 12.065 and 9.432 and 10.077 and 12.044 and 12.3 and 10.845 and 11.903 | Islet Glucagon, mean ([1]; WT mouse islets, G16, 1uM): 29.1976 pg/ml/ islet | Islet insulin, mean ([1]; WT mouse islets, G16, 1uM): 11.6921 | glucagon secretion from islets ([1]; WT mouse islets): significantly elevated | Plasma Glucagon Over Time (Fig 2C) ([2]; time 0, individual animals): 55.7691 pg/mL and 68.321 pg/mL and 77.904 pg/mL and 111.395 pg/mL and 52.9088 pg/mL and 48.0782 pg/mL and 166.643 pg/mL and 75.2113 pg/mL | Plasma Insulin Over Time (Fig 2B) ([2]; time 0, individual animals): 1.368 ng/mL and 2.115 ng/mL and 2.541 ng/mL and 1.628 ng/mL and 3.5154 ng/mL and 1.38 ng/mL and 1.662 ng/mL and 2.024 ng/mL | Plasma Glucagon Over Time (Fig 2C) ([2]; time 1, individual animals): 68.4222 pg/mL and 203.855 pg/mL and 443.444 pg/mL and 510.501 pg/mL and 371.284 pg/mL and 243.688 pg/mL and 323.455 pg/mL and 532.086 pg/mL | Plasma Insulin Over Time (Fig 2B) ([2]; time 1, individual animals): 2.471 ng/mL and 8.448 ng/mL and 6.286 ng/mL and 2.7997 ng/mL and 8.046 ng/mL and 6.547 ng/mL and 6.926 ng/mL and 4.435 ng/mL | Plasma Glucagon Over Time (Fig 2C) ([2]; time 2, individual animals): 677.742 pg/mL and 147.407 pg/mL and 198.886 pg/mL and 95.5346 pg/mL and 199.272 pg/mL and 184.367 pg/mL and 336.315 pg/mL and 387.077 pg/mL | Plasma Insulin Over Time (Fig 2B) ([2]; time 2, individual animals): 2.6557 ng/mL and 2.936 ng/mL and 3.027 ng/mL and 0.7256 ng/mL and 3.203 ng/mL and 2.271 ng/mL and 3.072 ng/mL and 2.0183 ng/mL | Plasma Glucagon Over Time (Fig 2C) ([2]; time 4, individual animals): 426.615 pg/mL and 76.1995 pg/mL and 36.6178 pg/mL and 86.9884 pg/mL and 83.1703 pg/mL and 202.015 pg/mL and 219.163 pg/mL and 202.907 pg/mL | Plasma Insulin Over Time (Fig 2B) ([2]; time 4, individual animals): 2.117 ng/mL and 1.616 ng/mL and 1.477 ng/mL and 1.139 ng/mL and 1.988 ng/mL and 2.587 ng/mL and 2.052 ng/mL | Plasma Glucagon Over Time (Fig 2C) ([2]; time 24, individual animals): 168.326 pg/mL and 107.348 pg/mL and 18.8494 pg/mL and 200.464 pg/mL and 140.291 pg/mL and 122.096 pg/mL and 264.039 pg/mL and 261.868 pg/mL | Plasma Insulin Over Time (Fig 2B) ([2]; time 24, individual animals): 1.016 ng/mL and 0.9428 ng/mL and 0.1505 ng/mL and 1.222 ng/mL and 1.548 ng/mL and 1.3655 ng/mL and 1.314 ng/mL and 1.563 ng/mL
